# Tested on: HCT116 MTAP-deleted cell lines
# Experiment: Cell viability assay (CellTiter-Glo, 7 days), HCT116 MTAP-deleted
# Assay type: cell-based
# Conditions: Homo sapiens, HCT-116
# Procedure, shortened: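 HCT116 MTAP-deleted and wild-type cells exposed to serially diluted compound for 7 days at 37 °C, 5% CO2. Viability read by CellTiter-Glo luminescence; CC50 derived per line, with selectivity comparing WT to MTAP-deleted, limited solubility can inflate values marked *.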
row,SMILES,CC50 [nM]
1,"Nc1nc2cc(F)c(C(=O)N3CC4(CCC3c3ccc(C(F)(F)F)cn3)CC4)cc2n2cncc12 (centres unmarked) [Ff-149, (4-amino-7-fluoroimidazo[1,5-a]quinoxalin-8-yl)(6-(5-(trifluoromethyl)pyridin-2-yl)-5-azaspiro[2.5]octan-5-yl)methanone]",< 100

# Same assay, conditions: Homo sapiens, HCT-116; cell viability, HCT116 MTAP-deleted; class symbols; read-out: CC50
row,SMILES,CC50 [nM]
1,"CN(Cc1ccc2c(c1)OC(F)(F)O2)C(=O)c1cc2c(cc1F)nc(N)c1cncn12 [Ff-124, 4-amino-N-((2,2-difluorobenzo[d][1,3]dioxol-5-yl)methyl)-7-fluoro-N-methylimidazo[1,5-a]quinoxaline-8-carboxamide]",100 to 1000
2,"COc1cc(C(F)(F)F)ccc1CN(C)C(=O)c1ccc2nc(N)c3cncn3c2c1 [Ff-125, 4-amino-N-(2-methoxy-4-(trifluoromethyl)benzyl)-N-methylimidazo[1,5-a]quinoxaline-8-carboxamide]",100 to 1000
3,"COCc1cc(C(F)(F)F)ccc1CN(C)C(=O)c1ccc2nc(N)c3cncn3c2c1 [Ff-126, 4-amino-N-(2-(methoxymethyl)-4-(trifluoromethyl)benzyl)-N-methylimidazo[1,5-a]quinoxaline-8-carboxamide]",100 to 1000
4,Cc1nc2cc([C@H]3CC[C@H](C)CN3C(=O)c3ccc4nc(N)c5cnc(C)n5c4c3)ccc2s1 [Ff-127],100 to 1000
5,"Nc1nc2cc(F)c(C(=O)N3CCOCC3c3ccc(C(F)(F)F)cn3)cc2n2cncc12 (centres unmarked) [Ff-128, (4-amino-7-fluoroimidazo[1,5-a]quinoxalin-8-yl)(3-(5-(trifluoromethyl)pyridin-2-yl)morpholino)methanone]",< 100
6,"C[C@@H]1CN(C(=O)c2cc3c(cc2F)nc(N)c2cncn23)[C@@H](c2ccc(C(F)(F)F)cn2)CO1 [Ff-129, (4-amino-7-fluoroimidazo[1,5-a]quinoxalin-8-yl)((2R,5S)-2-methyl-5-(5-(trifluoromethyl)pyridin-2-yl)morpholino)methanone]",< 100
7,"C[C@H]1CN(C(=O)c2cc3c(cc2F)nc(N)c2cncn23)[C@@H](c2ccc(C(F)(F)F)cn2)CO1 [Ff-130, (4-amino-7-fluoroimidazo[1,5-a]quinoxalin-8-yl)((2S,5S)-2-methyl-5-(5-(trifluoromethyl)pyridin-2-yl)morpholino)methanone]",< 100
8,"C[C@@H]1COC[C@H](c2ccc(C(F)(F)F)cn2)N1C(=O)c1cc2c(cc1F)nc(N)c1cncn12 [Ff-131, (4-amino-7-fluoroimidazo[1,5-a]quinoxalin-8-yl)((3R,5S)-3-methyl-5-(5-(trifluoromethyl)pyridin-2-yl)morpholino)methanone]",< 100
9,"C[C@@H]1OCCN(C(=O)c2cc3c(cc2F)nc(N)c2cncn23)[C@H]1c1ccc(C(F)(F)F)cn1 [Ff-132, (4-amino-7-fluoroimidazo[1,5-a]quinoxalin-8-yl)((2S,3S)-2-methyl-3-(5-(trifluoromethyl)pyridin-2-yl)morpholino)methanone]",< 100
10,"Nc1nc2cc(F)c(C(=O)N3CCCCC3c3ccc(C(F)(F)F)cn3)cc2n2cncc12 (centres unmarked) [Ff-133, (4-amino-7-fluoroimidazo[1,5-a]quinoxalin-8-yl)(2-(5-(trifluoromethyl)pyridin-2-yl)piperidin-1-yl)methanone]",< 100
11,"CC(=O)N1CCN(C(=O)c2cc3c(cc2F)nc(N)c2cncn23)C(c2ccc(C(F)(F)F)cn2)C1 (centres unmarked) [Ff-134, 1-(4-(4-amino-7-fluoroimidazo[1,5-a]quinoxaline-8-carbonyl)-3-(5-(trifluoromethyl)pyridin-2-yl)piperazin-1-yl)ethan-1-one]",100 to 1000
12,"CS(=O)(=O)N1CCN(C(=O)c2cc3c(cc2F)nc(N)c2cncn23)C(c2ccc(C(F)(F)F)cn2)C1 (centres unmarked) [Ff-135, (4-amino-7-fluoroimidazo[1,5-a]quinoxalin-8-yl)(4-(methylsulfonyl)-2-(5-(trifluoromethyl)pyridin-2-yl)piperazin-1-yl)methanone]",100 to 1000
13,"CN1CCN(C(=O)c2cc3c(cc2F)nc(N)c2cncn23)C(c2ccc(C(F)(F)F)cn2)C1 (centres unmarked) [Ff-136, (4-amino-7-fluoroimidazo[1,5-a]quinoxalin-8-yl)(4-methyl-2-(5-(trifluoromethyl)pyridin-2-yl)piperazin-1-yl)methanone]",100 to 1000
14,Cc1ncn2c1c(N)nc1cc(F)c(C(=O)N3CCOC[C@@H]3c3ccc(C(F)(F)F)cc3)cc12 [Ff-137],< 100
15,"Nc1nc2cc(F)c(C(=O)N3CCCC[C@@H]3c3ccc(C(F)(F)F)cc3)cc2n2cncc12 [Ff-139, (R)-(4-amino-7-fluoroimidazo[1,5-a]quinoxalin-8-yl)(2-(4-(trifluoromethyl)phenyl)piperidin-1-yl)methanone]",< 100
16,"Nc1nc2cc(F)c(C(=O)N3CCN(C4COC4)CC3c3ccc(C(F)(F)F)cn3)cc2n2cncc12 (centres unmarked) [Ff-140, (4-amino-7-fluoroimidazo[1,5-a]quinoxalin-8-yl)(4-(oxetan-3-yl)-2-(5-(trifluoromethyl)pyridin-2-yl)piperazin-1-yl)methanone]",100 to 1000

row,SMILES,CC50 [nM]
1,"Nc1nc2cc(F)c(C(=O)N3CCCCC3c3ccc(C(F)(F)F)cc3F)cc2n2cncc12 (centres unmarked) [Ff-141, (4-amino-7-fluoroimidazo[1,5-a]quinoxalin-8-yl)(2-(2-fluoro-4-(trifluoromethyl)phenyl)piperidin-1-yl)methanone]",< 100
2,"C[C@@H]1COC[C@H](c2ccc(C(F)(F)F)cn2)N1C(=O)c1cc2c(cn1)nc(N)c1cncn12 [Ff-142, (4-aminoimidazo[1,5-a]pyrido[3,4-e]pyrazin-8-yl)((3R,5S)-3-methyl-5-(5-(trifluoromethyl)pyridin-2-yl)morpholino)methanone]",< 100
3,"COc1cc(C(F)(F)F)ccc1C1CCCCN1C(=O)c1cc2c(cc1F)nc(N)c1cncn12 (centres unmarked) [Ff-143, (4-amino-7-fluoroimidazo[1,5-a]quinoxalin-8-yl)(2-(2-methoxy-4-(trifluoromethyl)phenyl)piperidin-1-yl)methanone]",100 to 1000
4,"CN(C(=O)c1cc2c(cc1F)nc(N)c1cncn12)[C@@H]1COc2cc(-c3cnn(C4COC4)c3)ccc21 [Ff-145, (S)-4-amino-7-fluoro-N-methyl-N-(6-(1-(oxetan-3-yl)-1H-pyrazol-4-yl)-2,3-dihydrobenzofuran-3-yl)imidazo[1,5-a]quinoxaline-8-carboxamide]",< 100
5,"CC(C)N(Cc1ccc(-c2cnn(-c3ccccn3)c2)cc1F)C(=O)c1cc2c(cc1F)nc(N)c1cncn12 [Ff-147, 4-amino-7-fluoro-N-(2-fluoro-4-(1-(pyridin-2-yl)-1H-pyrazol-4-yl)benzyl)-N-isopropylimidazo[1,5-a]quinoxaline-8-carboxamide]",< 100
6,"CC(C)N(Cc1ccc(-c2cnn(-c3cccnc3)c2)cc1F)C(=O)c1cc2c(cc1F)nc(N)c1cncn12 [Ff-148, 4-amino-7-fluoro-N-(2-fluoro-4-(1-(pyridin-3-yl)-1H-pyrazol-4-yl)benzyl)-N-isopropylimidazo[1,5-a]quinoxaline-8-carboxamide]",< 100
7,"CN(C(=O)c1cc2c(cc1F)nc(N)c1cncn12)[C@@H]1COc2cc(-c3cnn4c3COCC4)ccc21 [Ff-150, (S)-4-amino-N-(6-(6,7-dihydro-4H-pyrazolo[5,1-c][1,4]oxazin-3-yl)-2,3-dihydrobenzofuran-3-yl)-7-fluoro-N-methylimidazo[1,5-a]quinoxaline-8-carboxamide]",< 100
8,"C[C@H](c1ccc(C(F)(F)F)cn1)N(C(=O)c1cc2c(cc1F)nc(N)c1cncn12)C1CC1 [Ff-153, (R)-4-amino-N-cyclopropyl-7-fluoro-N-(1-(5-(trifluoromethyl)pyridin-2-yl)ethyl)imidazo[1,5-a]quinoxaline-8-carboxamide]",< 100
9,"CN(C(=O)c1cc2c(cc1F)nc(N)c1cncn12)C1COc2c1ccc1c2OC(F)(F)O1 (centres unmarked) [Ff-156, 4-amino-N-(2,2-difluoro-6,7-dihydro-[1,3]dioxolo[4,5-g]benzofuran-6-yl)-7-fluoro-N-methylimidazo[1,5-a]quinoxaline-8-carboxamide]",100 to 1000
10,"CN(C(=O)c1cc2c(cc1F)nc(N)c1cncn12)C1COc2c1ccc(C(F)(F)F)c2Cl (centres unmarked) [Ff-158, 4-amino-N-(7-chloro-6-(trifluoromethyl)-2,3-dihydrobenzofuran-3-yl)-7-fluoro-N-methylimidazo[1,5-a]quinoxaline-8-carboxamide]",< 100
11,"Nc1nc2cc(F)c(C(=O)N3CCO[C@@H]4Cc5c(ccc(Br)c5F)[C@@H]43)cc2n2cncc12 [Ff-159, (4-amino-7-fluoroimidazo[1,5-a]quinoxalin-8-yl)((4aS,9aR)-7-bromo-8-fluoro-2,3,9,9a-tetrahydroindeno[2,1-b][1,4]oxazin-4(4aH)-yl)methanone]",< 100
12,"Nc1nc2cc(F)c(C(=O)N3CCO[C@@H]4Cc5cc(Br)c(F)cc5[C@@H]43)cc2n2cncc12 [Ff-160, (4-amino-7-fluoroimidazo[1,5-a]quinoxalin-8-yl)((4aS,9aR)-7-bromo-6-fluoro-2,3,9,9a-tetrahydroindeno[2,1-b][1,4]oxazin-4(4aH)-yl)methanone]",< 100
13,"Nc1nc2cc(F)c(C(=O)N3CCO[C@@H]4Cc5c(cc(F)c(Br)c5F)[C@@H]43)cc2n2cncc12 [Ff-161, (4-amino-7-fluoroimidazo[1,5-a]quinoxalin-8-yl)((4aS,9aR)-7-bromo-6,8-difluoro-2,3,9,9a-tetrahydroindeno[2,1-b][1,4]oxazin-4(4aH)-yl)methanone]",100 to 1000
14,"Nc1nc2cnc(C(=O)N3CCO[C@@H]4Cc5c(cc(F)c(Br)c5F)[C@@H]43)cc2n2cncc12 [Ff-162, (4-aminoimidazo[1,5-a]pyrido[3,4-e]pyrazin-8-yl)((4aS,9aR)-7-bromo-6,8-difluoro-2,3,9,9a-tetrahydroindeno[2,1-b][1,4]oxazin-4(4aH)-yl)methanone]",100 to 1000
15,"CN(C(=O)c1cc2c(cc1F)nc(N)c1cncn12)[C@@H]1CCc2cc(C(F)F)ccc21 [Ff-166, (R)-4-amino-N-(5-(difluoromethyl)-2,3-dihydro-1H-inden-1-yl)-7-fluoro-N-methylimidazo[1,5-a]quinoxaline-8-carboxamide]",< 100

# Reference: patent publication US12448388B2, “PRMT5 inhibitors and uses thereof” (Gilead Sciences, Inc., priority 2023, dated 2025)
